According to the RepoRT retention time repository:

Assay: Waters SunFire C18, 150 × 2.1 mm, 3.5 µm, 25 °C, 0.25 mL/min, estimated dead time 1.3 min; A: water + 0.1% formic acid; B: methanol; gradient (min/%B) 0/5 30/100
Conditions: stereoisomer not certain

Compound	LC retention time [min]
CCC1CN2CCc3c([nH]c4ccccc34)C2CC1CC=O (stereo unspecified)	14.4
CC=C1CN2C(C3=CC4C5CC6N(CCC67c6ccccc6N(C3=O)C47)CC5=CC)CC34c5ccccc5N5C(=O)CC=C(C1CC23)C54 (stereo unspecified)	16
C=C1C2CC(=O)c3[nH]c4ccccc4c3C1N(C)CC2=CC (stereo unspecified)	14.2
CC=C1CN2CCC34c5ccccc5N5C(=O)C(C6CC78c9ccccc9N9C(=O)C=CC(C%10CC7N6CC%10=CC)C98)=CC(C1CC23)C54 (stereo unspecified)	15.3
CC=C(C=O)C1CC2c3c(c4ccccc4n3C(O)C1)CCN2C (stereo unspecified)	16.1
COC(=O)C1C2CC3c4[nH]c5cc(OC)ccc5c4CCN3CC2CC(O)C1OC (stereo unspecified)	16.1
CC=C1CN(C)C2Cc3c(n(C)c4ccccc34)C(=O)CC1C2C(=O)OC (stereo unspecified)	16.3
C=CC1CN2CCC3(C(=O)Nc4cc(O)ccc43)C2CC1CC1c2[nH]c3ccccc3c2CCN1C (stereo unspecified)	11.9
CC=C1CN2CCc3c([nH]c4ccccc34)C2CC1C(C=O)C(=O)OC (stereo unspecified)	18.3
COC(=O)N1c2ccccc2C23CCN4C(=O)C=CC45CCC12C(C5)C(=O)O3 (stereo unspecified)	24.1
C=CC1CN2CCc3c([nH]c4ccc(O)cc34)C2CC1CC1c2[nH]c3ccccc3c2CCN1C (stereo unspecified)	13.6
O=C1CC=C2C3CC4N(CCC45c4ccccc4N1C25)CC3=CCO (stereo unspecified)	12.1
COC(=O)C1CC23CCCN4CCC5(c6cc(Cc7ccc8c(c7)C79CCN%10CCCC%11(CCC7(N8)C(C(=O)O)C%11)C%109)ccc6N(C)C15CC2)C43 (stereo unspecified)	18
COC(=O)C1C(O)CCC2CN3CCc4c([nH]c5ccc(C)cc45)C3CC21 (stereo unspecified)	28.8
CC=C1C2CC[N+]3([O-])CCC4(C(=C2C(=O)OC)Nc2ccccc24)C13 (stereo unspecified)	15.3
CCC12C=CCN3CCC4(C(=C(C(=O)OC)C1)Nc1ccccc14)C32 (stereo unspecified)	18.2
COC(=O)C1=C2Nc3ccccc3C23CCN2CC(C(C)O)C1CC23 (stereo unspecified)	10.8
CCC1CN(C)C2Cc3c([nH]c4ccccc34)C(c3c(OC)ccc4c5c([nH]c34)C3([C-]=[O+]OC)CC4CC(CC)C3N(CC5)C4O)CC1C2C(=O)OC (stereo unspecified)	15.1
CC=C1CN2C(C3C(=O)N4c5ccccc5C56CCN7CC8=CCOC3C(C8CC75)C46)CC34c5ccccc5N5C(=O)CC=C(C1CC23)C54 (stereo unspecified)	15.6
CC=C1C[N+]2(C)CCC34c5ccccc5NC32C(O)CC1C4(CO)C(=O)OC (stereo unspecified)	13.4
CCC1CN(C)C2Cc3c([nH]c4ccccc34)C(O)(c3cc4c5c([nH]c4cc3OC)C3(C(=O)OC)CC4CC(CC)C3N(CC5)C4)CC1C2C(=O)OC (stereo unspecified)	16.3

Compound	LC retention time [min]
O=C1CC2OCC=C3CN4CCC56c7ccccc7N1C5C2C3CC46O (stereo unspecified)	13.3
CC=C1CN2CCc3c([nH]c4ccccc34)C2CC1Cc1nccc2c1[nH]c1ccc(O)cc12 (stereo unspecified)	16.6
CC=C1CN2C3CC1C1(C(=O)OC)C2CC2(c4cc(O)ccc4N(C)C32)C1OC(=O)c1cc(OC)c(OC)c(OC)c1 (stereo unspecified)	15.8
CC=C1CN2C3CC1C(CO)(C(=O)OC)C2Cc1c3[nH]c2ccccc12 (stereo unspecified)	12.9
O=C1CC2OCC=C3CN4CCC56c7ccccc7N1C5C2C3CC46 (stereo unspecified)	11
C=CC(CO)C1CCN2CCc3c([nH]c4ccccc34)C2C1 (stereo unspecified)	18.5
CCC1CN2CCC3(C(=O)Nc4ccccc43)C2CC1C(=COC)C(=O)OC (stereo unspecified)	16.4
CCC12CC34CC(C(=O)OC)=C5Nc6ccccc6C56CCN3C1C1CC3(CC)C5OC5CN5CCC7(c8ccccc8N(C64)C17O2)C53 (stereo unspecified)	25.8
CC=C1CN(C)C2Cc3c([nH]c4ccccc34)C(c3ccc4c5c([nH]c4c3)C3CC4CC(CC)C3N(CC5)C4)CC1C2C(=O)OC (stereo unspecified)	15.3
COC(=O)C1C(O)CCC2CN3CCc4c([nH]c5cc(OC)ccc45)C3CC21 (stereo unspecified)	14.1
CC=C1CN(C)CC2Cc3c([nH]c4ccccc34)C(=O)CC12 (stereo unspecified)	14.3
CCC1CC2CN3CCc4c([nH]c5ccc(OC)cc45)C(C(=O)OC)(C2)C13 (stereo unspecified)	16.8
COc1cc2c(cc1OC)C13CCN4CC5=CCOC6CC(=O)N2C1C6C5CC43 (stereo unspecified)	12.9
CC=C1CN2CCC34Cc5cc6c7c([nH]c6cc5OC35C2CC1C(C(=O)OC)N5c1ccccc14)CCC1(CC)CCCN(CC7)C1 (stereo unspecified)	14.7
CC=C1CN2CCC34c5cc(-c6cc7c(cc6OC)C68CCN9CC(=CC)C(CCC96N7C)C8C(=O)OC)c(OC)cc5N(C)C3C2CC1C4C(=O)OC (stereo unspecified)	16.9
C=CC1CN2CCc3c([nH]c4cc(O)ccc34)C2CC1CC1c2[nH]c3ccccc3c2CCN1C (stereo unspecified)	13.3
OC1OCC=C2CN3CCC45c6ccccc6NC4C1C2CC35 (stereo unspecified)	9.62
CCC1CN(C)C2Cc3c([nH]c4ccccc34)C(c3cc4c5c([nH]c4cc3OC)C3(C(=O)OC)CC4CC(CC)C3N(CC5)C4=O)CC1C2C(=O)OC (stereo unspecified)	22.6
COC(=O)C1=COC(C)C2Cn3ccc4c5ccccc5nc-4c3CC12 (stereo unspecified)	13.2
C=CC1CN2CCc3c([nH]c4ccccc34)C2CC1C(=COC)C(=O)OC (stereo unspecified)	16.7
CCC1=CN2CCC3=c4ccccc4=NC3=C2C=C1	14.4

Compound	LC retention time [min]
CCC1CN(C)CC2(C(=O)OC)Cc3c([nH]c4ccccc34)C(=O)CC12 (stereo unspecified)	15
COC(=O)C1CC23CCCN4CCC5(c6ccccc6N(C)C15CC2)C43 (stereo unspecified)	17.2
CC1OC=C2C(=O)N3CCc4c([nH]c5ccccc45)C3CC2C1C=O (stereo unspecified)	27.3
CC=C1CN2CCC3=C([NH2+]c4ccccc43)C2CC1C(Cc1cn2c(c3nc4ccccc4c1-3)CC1C(C(=O)OC)=COC(C)C1C2)C(=O)OC (stereo unspecified)	18.2
CC=C1CN2CCC34c5ccccc5N5C(C(=O)OC)C1CC2C53OC(=O)c1c4ccc(O)c1O (stereo unspecified)	19.6
CC=C1CN(C)CCC23C(=O)CC1C1COC(OC)C(=O)N(c4ccccc42)C13 (stereo unspecified)	16
CC=C1CN2CCC34CC5C6CC7c8c(c9ccccc9n8C)CC(C6COC5(C)OC35C2CC1C(C(=O)OC)N5c1ccccc14)N7C (stereo unspecified)	17.4
CCC12CCCN3CCc4c(n(c5ccccc45)C(c4ccc5c(c4)C46CCN7CCCC8(CCC4(C(C(=O)OC)C8)N5C)C76)C1)C32 (stereo unspecified)	18.7
CCC1CN2CCc3c([nH]c4ccccc34)C2CC1CCO (stereo unspecified)	14.1
CC=C1CN2C3CC45c6ccccc6NC4(O3)C2CC1C5(COC(C)=O)C(=O)OC (stereo unspecified)	17.3
CCC1CC2CN3CCc4c([nH]c5cc(OC)c(OC)cc45)C(C(=O)OC)(C2)C13 (stereo unspecified)	16.3
CCC12C=CCN3CCC4(C(=C(C(=O)OC)C1)Nc1cc(O)c(C5C=CC6(CC)CC(C(=O)OC)=C7Nc8c(O)cccc8C78CCN5C68)cc14)C32 (stereo unspecified)	16.7
CC=C1CN2CCc3c4n(c5ccccc35)C(C(=O)OC)C1CC42 (stereo unspecified)	17.5
CC=C1C[n+]2ccc3c([nH]c4ccccc43)c2CC1C(C(=O)OC)C1OCC2C3CC4N(CCC45c4ccccc4N1C25)CC3CC (stereo unspecified)	15.8
COC(=O)N1c2ccc(OC)cc2C23CCN4C(=O)C=CC45CCC12C3C5 (stereo unspecified)	28.1
COC(=O)C1CC23C=CCN4CCC5(c6ccccc6NC15C2C)C43 (stereo unspecified)	13.5
CC=C1CN(C)CCC23C(=O)CC1C1COC(O)C(=O)N(c4ccccc42)C13 (stereo unspecified)	12.1
CCC1(O)CC23CC4N(CCC45C(=C2C(=O)OC)Nc2ccccc25)C13 (stereo unspecified)	14.8
CCC12C=CCN3CCc4c(n(c5ccccc45)C(O)(C(=O)OC)C1)C32 (stereo unspecified)	13
CC=C1C[n+]2ccc3c([nH]c4ccccc43)c2CC1C1=CN2c3ccccc3C34CCN5CC(=CC)C(CC53)C(C1O)C24 (stereo unspecified)	15.2
CC=C1CN(C)CC2(C(=O)OC)Cc3c([nH]c4ccccc34)C(=O)CC12 (stereo unspecified)	14.3

Compound	LC retention time [min]
CC=C1CN2C(C3=CC4C5CC6N(CCC67c6ccccc6N(C3=O)C47)CC5=CCO)CC34c5ccccc5N5C(=O)CC=C(C1CC23)C54 (stereo unspecified)	15.3
CCC1CN2CCC34C5=C(CC6(CC7CC(CC)N8CCC9(C6=Nc6ccccc69)C78)CN5c5ccccc53)C1CC24 (stereo unspecified)	16.3
CC=C1C[N+]2(C)CCC34C(=C(C=O)C1CC32)Nc1ccccc14 (stereo unspecified)	11.3
C=CC1CN2CCc3c([nH]c4ccccc34)C2CC1CC1c2[nH]c3ccccc3c2CCN1C (stereo unspecified)	14.8
CN1CCC23C(=O)CC4C(=CCOC5CC(=O)N(c6ccccc62)C3C54)C1 (stereo unspecified)	13.6
CCC1(O)CC2CN(CCc3c([nH]c4ccccc34)C(C(=O)OC)(c3cc4c(cc3OC)N(C)C3C(O)(C(=O)OC)C(OC(C)=O)C5(CC)C=CCN6CCC43C65)C2)C1 (stereo unspecified)	18.6
O=C1CC(O)C2C3CC4N(CCC45c4ccccc4N1C25)CC3=CCO (stereo unspecified)	10.1
COC(=O)C1C2CC3c4[nH]c5cc(OC)ccc5c4CCN3CC2CC(OC(=O)c2cc(OC)c(OC)c(OC)c2)C1OC (stereo unspecified)	21.9
CCC1CN2CCc3c([nH]c4ccccc34)C2CC1Cc1nccc2c1[nH]c1ccccc12 (stereo unspecified)	14.5
CC=C1CN(C)C2Cc3c([nH]c4ccccc34)C(c3cc4[nH]c5c(c4cc3OC)CCN3CC4CC(CC)C3C5(C(=O)OC)C4)CC1C2C(=O)OC (stereo unspecified)	17.5
C=CC1CN2CCC1CC2c1[nH]c2ccccc2c1CCO (stereo unspecified)	16.7
COc1cc2c(cc1OC)C13CCN(C)CC45OC4COC4CC(=O)N2C1C4C5CC3=O (stereo unspecified)	10.1
COC(=O)C1(COC(=O)C=Cc2ccccc2)C2CC(N(C)CC23OC3C)C23Nc4ccccc4C21CC(=O)O3 (stereo unspecified)	29.9
CCC1=CC2CN3CCc4c([nH]c5ccccc45)C(C(=O)OC)(C2)C13 (stereo unspecified)	16.1
CCC1=C(CC(=O)OC)C(OC)(c2nccc3c2[nH]c2ccccc23)OC1=O (stereo unspecified)	27
C=CC12CN(C)C3C4COC(CC41)C1(C(=O)Nc4ccccc41)C32 (stereo unspecified)	9.75
Cc1[nH]ccc2c(C)c3nc4ccccc4c3cc12	21.5
CCC1CC2CC3c4[nH]c5ccccc5c4CCN(C2)C13 (stereo unspecified)	15.3
